According to patent US4254106A, “Biologically active amides” (priority 1976, dated 1981):
pIC50: −log10 of the molar value. Where a name gives a salt, the structure may show the parent alone. Non-standard residues stand in square brackets, D forms with d. Residues, ends and D or L forms follow the SMILES beside them.

System: isolated mouse vas deferens
Format: cell-based
Details: for Relative Potency (Morphine): RP=antilog[logD50(morphine)-logD50(test compound)]; for pIC50: dose giving the response halfway between maximum response and minimum contraction, pulses at 0.1 Hz, mean of generally at least two cumulative dose response curves, read-out: Mean D50
Procedure: The compounds were examined for their ability to inhibit neurally evoked contractions of the isolated mouse vas deferens preparation (method of Hughes et al, Brain Research, 88 (1975) 296, using pulses at 0.1 Hz).
The heights of the five contractions that immediately preceded the addition of the first "dose" of test compound were measured and their mean calculated. The resultant mean contraction associated with a particular bath concentration of test compound was calculated from the heights of the 6th, 7th, 8th, 9th and 10th contractions after the addition of the appropriate "dose" of test compound, i.e. the five contractions that immediately preceded the subsequent "dose" or washout.
The mean control contraction height and the concentration related mean contraction heights were used to compute the constants in an equation based on the Langmuir Adsorption Isotherm which defined the dose response curve: [formula] where y=contraction (mm)
For each test compound the D50 was calculated, defined as the dose giving the resonse that is halfway between the maximum response and the minimum contraction of the tissue.
Generally at least two cumulative dose response curves were constructed and a mean D50 calculated.

| SMILES | Relative Potency (Morphine) | pIC50 | Reversal of the inhibition of contractions by naloxone |
| --- | --- | --- | --- |
| CC(C)C[C@H](NC(=O)[C@H](Cc1ccccc1)NC(=O)CNC(=O)[C@@H](C)NC(=O)[C@@H](N)Cc1ccc(O)cc1)C(=O)O [Example 4, H.Tyr.D-Ala.Gly.Phe.Leu.OH HCl] | 267 | 8.76 |  |
| CSCC[C@H](NC(=O)[C@H](Cc1ccccc1)NC(=O)CNC(=O)[C@@H](C)NC(=O)[C@@H](N)Cc1ccc(O)cc1)C(=O)O [5(a), H.Tyr.D-Ala.Gly.Phe.Met.OH HCl] | 229 | 8.69 |  |
| CSCC[C@H](NC(=O)[C@H](Cc1ccccc1)NC(=O)CNC(=O)[C@@H](C)NC(=O)[C@@H](N)Cc1ccc(O)cc1)C(=O)N[C@H](C(=O)O)[C@@H](C)O [Example 14, H.Tyr.D-Ala.Gly.Phe.Met.Thr.OH HCl] (H-Y[dA]GFMT-OH) | 229 | 8.69 |  |
| COC(=O)[C@H](CCSC)NC(=O)[C@H](Cc1ccccc1)NC(=O)CNC(=O)[C@@H](C)NC(=O)[C@@H](N)Cc1ccc(O)cc1 [5(b), H.Tyr.D-Ala.Gly.Phe.Met.OMe] | 94 | 8.31 |  |
| CN1CC[C@]23c4c5ccc(O)c4O[C@H]2[C@@H](O)C=C[C@H]3[C@H]1C5 [Morphine, reference compound] |  |  | Reversal of the inhibition of the contractions was effected |
